From US10689354B2, “Aminoazole derivative” (Teijin Pharma Limited, priority 2015, dated 2020)

The compounds below were run against T1, androgen receptor (AR-LBD) (Rattus norvegicus, UniProt P15207) (assay: Evaluation of androgen receptor affinity (PolarScreen Androgen Receptor Competitor Assay Kit, Red; fluorescence polarization)). Conditions: 22° C. for 5 hours, relative to binding rate of 1 μM DHT, read-out: AR affinity (pEC50) (converted).
T1 construct: 5 μL of 2×AR-LBD/Fluoromone AL Red Complex contained in the kit; purchased Invitrogen
T1 sequence (P15207 651-882 limits assumed): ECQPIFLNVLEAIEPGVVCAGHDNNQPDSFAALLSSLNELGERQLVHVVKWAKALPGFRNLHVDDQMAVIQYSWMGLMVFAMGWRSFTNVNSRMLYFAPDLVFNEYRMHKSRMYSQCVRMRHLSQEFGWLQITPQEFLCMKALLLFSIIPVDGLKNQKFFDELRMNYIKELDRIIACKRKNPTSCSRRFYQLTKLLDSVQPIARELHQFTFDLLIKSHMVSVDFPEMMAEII
Method: Evaluation of an Androgen Receptor Affinity
To examine the interaction of a compound with an androgen receptor, evaluation was carried out in accordance with the following procedure using PolarScreen™ Androgen Receptor Competitor Assay Kit, Red (Invitrogen). To 2 wells each of a 384 well black plate was added 5 μL of the compound solution. To each well was added 5 μL of 2×AR-LBD/Fluoromone AL Red Complex contained in the kit and the samples were reacted at 22° C. for 5 hours. After 5 hours of the reaction, fluorescence polarization was measured and the affinity was evaluated. The affinity of the compound was determined by comparing to the binding rate of 1 μM of dihydrotestosterone (DHT), and quantified the logarithm value (pEC50) of reciprocal value of the effective concentration of the compound which is equal to 50% of the binding rate by applying a 4 parameter goodness-of-fit calculation.
`Cc1sc(N(CC2CCC2)c2ccc(C#N)cc2)nc1C(=O)NS(C)(=O)=O` [Compound 440, 2-[4-cyano-N-(cyclobutylmethyl)anilino]-5-methyl-N-methylsulfonyl-thiazole-4-carboxamide] showed an EC50 of 501 nM.
`Cc1sc(N(CCc2coc3ccccc23)Cc2ccccc2)nc1C(=O)NS(C)(=O)=O` [Compound 707, 2-[2-(benzofuran-3-yl)ethyl-benzyl-amino]-5-methyl-N-methylsulfonyl-thiazole-4-carboxamide] gave an EC50 greater than 2000 nM.
For `Cc1sc(N(Cc2ccccc2)c2cccnn2)nc1C(=O)NS(C)(=O)=O` [Example 238, 2-[benzyl(pyridazin-3-yl)amino]-5-methyl-N-methylsulfonyl-thiazole-4-carboxamide], the EC50 was greater than 2000 nM.
`Cc1sc(N(CC2CCCCO2)c2ccc(C#N)cc2)nc1C(=O)NS(C)(=O)=O` (stereo not drawn) [Compound 345, 2-[4-cyano-N-(tetrahydropyran-2-ylmethyl)anilino]-5-methyl-N-methylsulfonyl-thiazole-4-carboxamide] was tested, and the EC50 was greater than 2000 nM.
For `Cc1sc(N(Cc2ccccc2)c2ccccc2)nc1C(=O)NS(C)(=O)=O` [Compound 428, 2-(N-benzylanilino)-5-methyl-N-methylsulfonyl-thiazole-4-carboxamide], the EC50 was greater than 2000 nM.
Compound `Cc1sc(N(CC2CCCC2O)c2ccc(C#N)cc2)nc1C(=O)NS(C)(=O)=O` (stereo not drawn) [Compound 405, 2-[4-cyano-N-[(2-hydroxycyclopentyl)methyl]anilino]-5-methyl-N-methylsulfonyl-thiazole-4-carboxamide] has an EC50 greater than 2000 nM.
In the case of `Cc1sc(N(CCn2cccc2)Cc2ccccc2)nc1C(=O)NS(C)(=O)=O` [Example 309, 2-[benzyl(2-pyrrol-1-ylethyl)amino]-5-methyl-N-methylsulfonyl-thiazole-4-carboxamide], the EC50 is reported as greater than 2000 nM.
Compound `COCCOc1ccc(N(Cc2ccccc2)c2nc(C(=O)NS(C)(=O)=O)c(C)s2)cc1` [Compound 22, 2-[N-benzyl-4-(2-methoxyethoxy)anilino]-5-methyl-N-methylsulfonyl-thiazole-4-carboxamide] has an EC50 of 501 nM.
`Cc1sc(N(CCc2ccc(C(N)=O)cc2)Cc2ccccc2)nc1C(=O)NS(C)(=O)=O` [Compound 737, 2-[benzyl-[2-(4-carbamoylphenyl)ethyl]amino]-5-methyl-N-methylsulfonyl-thiazole-4-carboxamide] gave an EC50 greater than 2000 nM.
For `Cc1sc(N(Cc2cscn2)c2ccc(C#N)cc2)nc1C(=O)NS(C)(=O)=O` [Compound 380, 2-[4-cyano-N-(thiazol-4-ylmethyl)anilino]-5-methyl-N-methylsulfonyl-thiazole-4-carboxamide], the EC50 was 794 nM.
`Cc1sc(N(Cc2ccc(OC(F)(F)F)cc2)c2ccc(C#N)cc2)nc1C(=O)NS(=O)(=O)CCCN1CCOCC1` [Compound 541, 2-[4-cyano-N-[[4-(trifluoromethoxy)phenyl]methyl]anilino]-5-methyl-N-(3-morpholinopropylsulfonyl)thiazole-4-carboxamide] showed an EC50 greater than 2000 nM.
`Cc1sc(N(CCc2ccc3nccnc3c2)Cc2ccccc2)nc1C(=O)NS(C)(=O)=O` [Compound 690, 2-[benzyl(2-quinoxalin-6-ylethyl)amino]-5-methyl-N-methylsulfonyl-thiazole-4-carboxamide] showed an EC50 of 1000 nM.
`Cc1sc(N(Cc2ccccc2)c2cccc(C(F)(F)F)c2)nc1C(=O)NS(C)(=O)=O` [Example 224, 2-[N-benzyl-3-(trifluoromethyl)anilino]-5-methyl-N-methylsulfonyl-thiazole-4-carboxamide] gave an EC50 of 1260 nM.
With `Cc1sc(N(Cc2ccc(OCCCN3CCCC3=O)cc2)c2ccc(C#N)cc2)nc1C(=O)NS(C)(=O)=O` [Compound 578, 2-[4-cyano-N-[[4-[3-(2-oxopyrrolidin-1-yl)propoxy]phenyl]methyl]anilino]-5-methyl-N-methylsulfonyl-thiazole-4-carboxamide] the EC50 was 794 nM.
With `Cc1sc(N(CC[C@H]2C[C@H](O)CO2)c2ccc(C#N)cc2)nc1C(=O)NS(C)(=O)=O` (racemic) [Compound 457, 2-[4-cyano-N-[2-[trans-4-hydroxytetrahydrofuran-2-yl]ethyl]anilino]-5-methyl-N-methylsulfonyl-thiazole-4-carboxamide] the EC50 was greater than 2000 nM.
`Cc1sc(N(CC(O)c2ccccc2)c2ccc(C#N)cc2)nc1C(=O)NS(C)(=O)=O` (stereo not drawn) [Compound 468, 2-(4-cyano-N-(2-hydroxy-2-phenyl-ethyl)anilino)-5-methyl-N-methylsulfonyl-thiazole-4-carboxamide] was tested, and the EC50 was greater than 2000 nM.
`Cc1ccccc1CN(c1ccc(C#N)cc1)c1nc(C(=O)NS(C)(=O)=O)c(Cl)s1` [Example 259, 5-chloro-2-[4-cyano-N-(o-tolylmethyl)anilino]-N-methylsulfonyl-thiazole-4-carboxamide] gave an EC50 of 79.4 nM.
In the case of `Cc1sc(N(CCC2CC2)Cc2ccccc2)nc1C(=O)NS(C)(=O)=O` [Compound 687, 2-[benzyl(2-cyclopropylethyl)amino]-5-methyl-N-methylsulfonyl-thiazole-4-carboxamide], the EC50 is reported as greater than 2000 nM.
For `Cc1sc(N(Cc2ccccc2)c2cccc(OC(F)(F)F)c2)nc1C(=O)NS(C)(=O)=O` [Compound 35, 2-[N-benzyl-3-(trifluoromethoxy)anilino]-5-methyl-N-methylsulfonyl-thiazole-4-carboxamide], the EC50 was greater than 2000 nM.
Work on `Cc1sc(N(CCc2ccc(N(C)C)cc2)c2ccc(C#N)cc2)nc1C(=O)NS(C)(=O)=O` [Compound 480, 2-[4-cyano-N-[2-[4-(dimethylamino)phenyl]ethyl]anilino]-5-methyl-N-methylsulfonyl-thiazole-4-carboxamide] yielded an EC50 greater than 2000 nM.
`Cc1sc(N(CCC2CCN(C(=O)OC(C)(C)C)CC2)Cc2ccccc2)nc1C(=O)NS(C)(=O)=O` [Example 319, tert-butyl 4-[2-[benzyl-[5-methyl-4-(methylsulfonylcarbamoyl)thiazol-2-yl]amino]ethyl]piperidine-1-carboxylate] showed an EC50 greater than 2000 nM.
`Cc1sc(N(Cc2ccccc2)c2ccccc2O)nc1C(=O)NS(C)(=O)=O` [Example 207, 2-(N-benzyl-2-hydroxy-anilino)-5-methyl-N-methylsulfonyl-thiazole-4-carboxamide] gave an EC50 greater than 2000 nM.
Compound `COCCN(c1ccc(C#N)cc1)c1nc(C(=O)NS(C)(=O)=O)c(C)s1` [Compound 357, 2-[4-cyano-N-(2-methoxyethyl)anilino]-5-methyl-N-methylsulfonyl-thiazole-4-carboxamide] has an EC50 greater than 2000 nM.
Work on `Cc1sc(N(Cc2ccccc2)c2ccc(F)cc2)nc1C(=O)NS(C)(=O)=O` [Compound 28, 2-(N-benzyl-4-fluoro-anilino)-5-methyl-N-methylsulfonyl-thiazole-4-carboxamide] yielded an EC50 of 1000 nM.
For `Cc1sc(N(Cc2ccccc2)c2ccc(C#N)cc2)nc1C(=O)NS(=O)(=O)CCN1C(=O)c2ccccc2C1=O` [Compound 373, 2-(N-benzyl-4-cyano-anilino)-N-[2-(1,3-dioxoisoindolin-2-yl)ethylsulfonyl]-5-methyl-thiazole-4-carboxamide], the EC50 was greater than 2000 nM.
With `Cc1sc(N(CCc2ccncc2)Cc2ccccc2)nc1C(=O)NS(C)(=O)=O` [Compound 743, 2-[benzyl-[2-(4-pyridyl)ethyl]amino]-5-methyl-N-methylsulfonyl-thiazole-4-carboxamide] the EC50 was 631 nM.
Work on `Cc1sc(N(Cc2ccccc2)c2ccnc3ccccc23)nc1C(=O)NS(C)(=O)=O` [Example 236, 2-[benzyl(4-quinolyl)amino]-5-methyl-N-methylsulfonyl-thiazole-4-carboxamide] yielded an EC50 greater than 2000 nM.
In the case of `Cc1sc(N(Cc2ccccc2)Cc2cccnc2)nc1C(=O)NS(C)(=O)=O` [Example 293, 2-[benzyl(3-pyridylmethyl)amino]-5-methyl-N-methylsulfonyl-thiazole-4-carboxamide], the EC50 is reported as greater than 2000 nM.
Work on `Cc1noc(C)c1CN(CCc1ccc(Cl)cc1)c1nc(C(=O)NS(C)(=O)=O)c(C)s1` [Compound 151, 2-[2-(4-chlorophenyl)ethyl-[(3,5-dimethylisoxazol-4-yl)methyl]amino]-5-methyl-N-methylsulfonyl-thiazole-4-carboxamide] yielded an EC50 greater than 2000 nM.
In the case of `Cc1sc(N(Cc2ccc(OCC(=O)N(C)C)cc2)c2ccc(C#N)cc2)nc1C(=O)NS(C)(=O)=O` [Compound 570, 2-[4-cyano-N-[[4-[2-(dimethylamino)-2-oxo-ethoxy]phenyl]methyl]anilino]-5-methyl-N-methylsulfonyl-thiazole-4-carboxamide], the EC50 is reported as 1260 nM.
`COC(C)(C)CCN(c1ccc(C#N)cc1)c1nc(C(=O)NS(C)(=O)=O)c(C)s1` [Compound 444, 2-(4-cyano-N-(3-methoxy-3-methyl-butyl)anilino)-5-methyl-N-methylsulfonyl-thiazole-4-carboxamide] was tested, and the EC50 was 1260 nM.
Compound `Cc1sc(N(Cc2ccccc2)c2ccc(CCO)cc2)nc1C(=O)NS(C)(=O)=O` [Example 234, 2-[N-benzyl-4-(2-hydroxyethyl)anilino]-5-methyl-N-methylsulfonyl-thiazole-4-carboxamide] has an EC50 greater than 2000 nM.
Compound `Cc1sc(N(CC2CCOCC2)c2ccc(C#N)cc2)nc1C(=O)NS(C)(=O)=O` [Compound 346, 2-[4-cyano-N-(tetrahydropyran-4-ylmethyl)anilino]-5-methyl-N-methylsulfonyl-thiazole-4-carboxamide] has an EC50 greater than 2000 nM.
